The nature of data set [1]: Prolyl amide cis/trans equilibrium of tetrapeptides by NMR in various solvents. Format: physicochemical. The method, then: Conformational analysis of tetrapeptides 2-11 to 2-13 and 2-16 using NMR. […] The lower tendency of aggregation of glycosylated peptides has previously been reported (runkel et al., 1998). The NMR spectra of all tetrapeptides were measured at the same concentration (8 mM). Intramolecular hydrogen bonding was evaluated by temperature coefficient experiments in DMSO-d6 or H2O/D2O (9/1). Because exchangeable protons engaged in intramolecular hydrogen bonds are typically not influenced by strong hydrogen-bonding solvents (Kopple et al., 1969). The prolyl N-terminal geometry and turn structure were investigated by ROESY experiments (Misicka et al., 1998).
Solvent effects. In addition, the influence of different solvents on the geometry of prolyl N-terminus was studied (Table 14). […] In contrast, peptide 2-12 and reference peptide 2-16 display a solvent effect.

The conditions of data set [2]: in CD2Cl2; cited from earlier work.

Where a SMILES comes first, the peptide text is derived from it. [ ]: non-standard residue; d: D form. A value given as a limit tells only on which side of the number the result lay.

In the case of `CC(=O)N[C@@H](CC(C)C)C(=O)N[C@H](Cc1ccccc1)C(=O)N1CCC[C@H]1C(=O)N[C@H](C(=O)N(C)C)C(C)C` [Compound 2-16, Ac-Leu-D-Phe-Pro-Val-NMe2] (Ac-L[dF]PV-NMe2), the “Equilibrium constant Kt/c” value worked out at 19.00 in data set [1] (CD2Cl2, 500 MHz NMR at 25° C.); 3.17 in data set [1] (CD3OD, 500 MHz NMR at 25° C.); 1.32 in data set [1] (DMSO-d6, 500 MHz NMR at 25° C.). The “Concentration at which peptide aggregated” value in data set [2] is no less than 10000 µM.

Source of the values: patent US20100256333A1, “Peptide-Based Beta Turn Mimetics” (UNIVERSITY OF MANITOBA, priority 2009, published 2010).
